Laboratory results taken from patent US20200223889A1, “Bicyclic Compounds Capable of Binding to Melanocortin 4 Receptor” (Novo Nordisk A/S, priority 2017, published 2020).
Read-outs that look alike come from different tables or passages of the source. Positions of bridges follow the written chain, without caps; N, C: chain ends. Non-standard residues stand in square brackets, D forms with d. Residues, ends and D or L forms follow the SMILES beside them. Lys(CH2CO2H)2 = N[C@@H](CCCCN(CC(=O)O)CC(=O)O)C(=O)O; Phe(3,4-(OMe)2) = COc1ccc(C[C@H](N)C(=O)O)cc1OC; Thz = O=C(O)[C@@H]1CSCN1

What was measured:
human MC4R [1] = target: T1, human MC4R (Homo sapiens, UniProt P32245); experiment: 125NDP-α-MSH competitive binding to membranes of BHK cells expressing human MC4 receptor (filtration assay)
T1 construct: expressed in transfected cells
Outline: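 Displacement of ^125NDP-α-MSH (apx. […] final) was measured by filtration after 2 h at 25 °C, using diluted membranes of stably transfected BHK cells in pH 7.0 HEPES buffer. Compounds spanned 1 μM to 0.001 nM; binding curves were analysed by non-linear regression.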

human MC4R [2] = target: T1, human MC4R; experiment: Functional cAMP assay (CisBio HTRF) in BHK cells expressing human MC4R; assay type: cell-based; conditions: for MC1R/MC4R cAMP EC50 ratio: MC1R cAMP EC50 divided by MC4R cAMP EC50
Outline: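 Compound working solutions, 10-fold dilutions from 2 μM at twice final strength, in buffer containing 1 mM IBMX, were incubated 30 min at 25 °C with BHK cells stably carrying human MC4R or MC1R. Accumulated cAMP was then detected by competitive HTRF after 1 h at 25 °C and fitted by non-linear regression.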

human MC1R = target: T2, human MC1R (Homo sapiens, UniProt Q01726); experiment: Functional cAMP assay (CisBio HTRF) in BHK cells expressing human MC1R; assay type: cell-based
T2 construct: expressed in transfected cells
Description: In order to assess the potency of the compounds on human MC1R and human MC4R cAMP signalling was measured.
cAMP induction was measured by c-AMPdynamic2 assay, HTRF 62AM4PEC system from CisBio for the human MC1R and human MC4R according to the protocol provided by the vendor. BHK cells expressing the human MC1 or MC4 receptor were generated by stable transfection with expression vectors encoding the cDNA of either MC1R or MC4R.
In details; 25 μl compound—or standard solution were added in the respective wells. Compound was reconstituted in buffer (DMEM w/o phenol red, 10 mM
Hepes, lx Glutamine, 0.1% OV-albumin1, 1 mM IBMX) and serially diluted starting at 2 μM, 10-fold seven times. Dilutions were carried out in the same aforementioned buffer to the desired working concentration ranges (2× higher than the final concentration). 25 μl cell solution was then added and allowed to incubate for 30 min while lightly shaking, at 25° C. […] The provided components for the assay were reconstituted according to the CisBio assay protocol “3.1 supplied reagents and preparation procedure” in MilliQ purification system H2O and diluted 1:20 in lysis buffer. 25 μl cAMP-d2 and 25 μl Cryptate conjugate were added to all wells.
Plates were centrifuged at 1500 rpm for 30 sec and incubated for 1 h, lightly shaking, at 25° C. in a hotel stacker. The plates were read on Mithras LB 940 provided by Berthold Technologies The data were analysed by non-linear regression analysis of binding curves, using the Windows™ program GraphPad™ Prism (GraphPad Software, USA).
The latter is used when no full curve can be obtained in the concentration ranges indicated above.

[3] = human MC4R, BHK cell membranes, 125NDP-α-MSH radioligand, read-out: MC4R binding Ki
[4] = BHK cells expressing human MC4R, '>' = highest dose used with no response, read-out: MC4R cAMP EC50
[5] = BHK cells expressing human MC1R, '>' = highest dose used with no response, read-out: MC1R cAMP EC50

T2 sequence (Q01726 whole entry): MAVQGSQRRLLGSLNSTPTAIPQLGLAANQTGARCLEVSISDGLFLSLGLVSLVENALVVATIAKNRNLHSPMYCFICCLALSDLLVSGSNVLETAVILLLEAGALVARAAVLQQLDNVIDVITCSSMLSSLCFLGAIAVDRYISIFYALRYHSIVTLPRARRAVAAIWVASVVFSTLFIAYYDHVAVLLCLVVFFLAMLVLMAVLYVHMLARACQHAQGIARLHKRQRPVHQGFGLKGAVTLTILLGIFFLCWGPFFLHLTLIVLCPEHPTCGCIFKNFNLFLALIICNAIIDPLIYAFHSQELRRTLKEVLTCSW
T1 sequence (P32245 whole entry): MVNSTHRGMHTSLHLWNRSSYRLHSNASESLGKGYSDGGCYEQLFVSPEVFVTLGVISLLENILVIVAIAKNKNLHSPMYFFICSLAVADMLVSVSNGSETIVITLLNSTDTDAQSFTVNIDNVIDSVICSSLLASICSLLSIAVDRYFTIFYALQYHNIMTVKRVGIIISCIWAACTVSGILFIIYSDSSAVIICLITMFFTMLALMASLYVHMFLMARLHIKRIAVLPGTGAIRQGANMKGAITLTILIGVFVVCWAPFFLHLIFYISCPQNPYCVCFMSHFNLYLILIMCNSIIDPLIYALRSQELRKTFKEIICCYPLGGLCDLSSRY

Ki (human MC4R [1]; [3]) [nM] | EC50 (human MC4R [2]; [4]) [nM] | EC50 (human MC1R; [5]) [nM] | SMILES | MC1R/MC4R cAMP EC50 ratio (human MC4R [2]) | Ki (human MC4R [1]) [nM] | EC50 (human MC4R [2]) [nM] | EC50 (human MC1R) [nM]
0.08 | 0.02 | 1.76 | C[C@@H]1NC(=O)[C@@H]2CSCSC[C@H](NC(=O)[C@H](Cc3c[nH]c4ccccc34)NC(=O)[C@H](CCCNC(=N)N)NC(=O)[C@@H](Cc3ccccc3)NC(=O)[C@H](Cc3c[nH]cn3)NC1=O)C(=O)N[C@@H](C)C(=O)N[C@@H](Cc1c[nH]cn1)C(=O)N[C@H](Cc1ccccc1)C(=O)N[C@@H](CCCNC(=N)N)C(=O)N[C@@H](Cc1c[nH]c3ccccc13)C(=O)N2 [Chem. 8, c[c[Cys-Ala-His-D-Phe-Arg-Trp-Cys]- Ala-His-D-Phe-Arg-Trp]] | 88 |  |  | 
 |  |  | C[C@H]1NC(=O)[C@@H]2CSSC[C@H](NC(=O)[C@H](Cc3c[nH]c4ccccc34)NC(=O)[C@H](CCCNC(=N)N)NC(=O)[C@@H](Cc3ccccc3)NC(=O)[C@H](Cc3c[nH]cn3)NC1=O)C(=O)N[C@H](C)C(=O)N[C@@H](Cc1c[nH]cn1)C(=O)N[C@H](Cc1ccccc1)C(=O)N[C@@H](CCCNC(=N)N)C(=O)N[C@@H](Cc1c[nH]c3ccccc13)C(=O)N2 [Chem. 10, c[c[Cys-D-Ala-His-D-Phe-Arg-Trp- Cys]-D-Ala-His-D-Phe-Arg-Trp]] | 98 | 0.13 | 0.05 | 4.88
 |  |  | C[C@@H]1NC(=O)[C@H](C)NC(=O)[C@@H]2CSSC[C@H](NC(=O)[C@H](Cc3c[nH]c4ccccc34)NC(=O)[C@H](C)NC(=O)[C@@H](Cc3ccccc3)NC1=O)C(=O)N[C@@H](C)C(=O)N[C@@H](Cc1c[nH]cn1)C(=O)N[C@H](Cc1ccccc1)C(=O)N[C@@H](CCCNC(=N)N)C(=O)N[C@@H](Cc1c[nH]c3ccccc13)C(=O)N2 [Chem. 11, c[[Cys-Ala-His-D-Phe-Arg-Trp-Cys]- Ala-Ala-D-Phe-Ala-Trp]] (cyclo(AA[dF]AWCAH[dF]RWC); disulfide 6-12) | 72 | 0.25 | 0.03 | 2.17
 |  |  | C[C@@H]1NC(=O)[C@@H]2CSSC[C@H](NC(=O)[C@H](Cc3c[nH]c4ccccc34)NC(=O)[C@H](CCCNC(=N)N)NC(=O)[C@@H](Cc3ccccc3)NC(=O)[C@H](Cc3c[nH]cn3)NC1=O)C(=O)N[C@@H](CCCNC(=N)N)C(=O)N[C@@H](Cc1ccccc1)C(=O)N[C@@H](Cc1ccccc1)C(=O)N[C@@H](CC(N)=O)C(=O)N[C@@H](C)C(=O)N2 [Chem. 12, c[c[Cys-Ala-His-D-Phe-Arg-Trp-Cys]- Arg-Phe-Phe-Asn-Ala]] (cyclo(ACAH[dF]RWCRFFN); disulfide 2-8) | 57 | 0.28 | 0.07 | 3.97
 |  |  | C[C@@H]1NC(=O)[C@@H]2CSSC[C@H](NC(=O)[C@H](Cc3c[nH]c4ccccc34)NC(=O)[C@H](CCCNC(=N)N)NC(=O)[C@@H](Cc3ccccc3)NC(=O)[C@H](Cc3c[nH]cn3)NC1=O)C(=O)N[C@@H](CCCNC(=N)N)C(=O)N[C@@H](Cc1ccccc1)C(=O)N[C@@H](Cc1ccccc1)C(=O)N[C@@H](CC(N)=O)C(=O)N[C@@H](C)C(=O)N[C@@H](Cc1ccccc1)C(=O)N2 [Chem. 13, c[c[Cys-Ala-His-D-Phe-Arg-Trp-Cys]- Arg-Phe-Phe-Asn-Ala-Phe]] (cyclo(AFCAH[dF]RWCRFFN); disulfide 3-9) | 64 | 0.26 | 0.1 | 6.36
0.06 | 0.02 | 0.22 | C[C@@H]1NC(=O)[C@@H]2CSSC[C@H](NC(=O)[C@H](Cc3c[nH]c4ccccc34)NC(=O)[C@H](CCCCNC(=N)N)NC(=O)[C@@H](Cc3ccccc3)NC(=O)[C@H](Cc3c[nH]cn3)NC1=O)C(=O)N[C@@H](C)C(=O)N[C@@H](Cc1c[nH]cn1)C(=O)N[C@H](Cc1ccccc1)C(=O)N[C@@H](CCCCNC(=N)N)C(=O)N[C@@H](Cc1c[nH]c3ccccc13)C(=O)N2 [Chem. 22, c[c[Cys-Ala-His-D-Phe-HArg-Trp- Cys]-Ala-His-D-Phe-HArg-Trp]] | 11 |  |  | 
 |  | > 55 | COc1ccc(C[C@@H]2NC(=O)[C@H](CCCNC(=N)N)NC(=O)[C@@H](Cc3ccccc3)NC(=O)[C@H](Cc3c[nH]cn3)NC(=O)[C@H](C)NC(=O)[C@@H]3CSSC[C@H](NC2=O)C(=O)N[C@@H](C)C(=O)N[C@@H](CCCCN)C(=O)N[C@@H](CCCCN)C(=O)N[C@@H](CCCCN)C(=O)N[C@@H](Cc2c[nH]c4ccccc24)C(=O)N3)cc1OC [Chem. 67, c[c[Cys-Ala-His-D-Phe-Arg-3,4- DiMeo-Phe-Cys]-Ala-Lys-Lys-Lys- Trp]] (cyclo(AH[dF]R[Phe(3,4-(OMe)2)]CAKKKWC); disulfide 6-12) | >18 |  |  | 
 |  |  | O=C1N[C@H]2CSSC[C@H](NC(=O)[C@H](Cc3c[nH]c4ccccc34)NC(=O)[C@H](Cc3c[nH]cn3)NC(=O)[C@@H](Cc3ccccc3)NC(=O)[C@H](Cc3c[nH]cn3)NC(=O)[C@@H]3CSCN3C2=O)C(=O)N2CSC[C@H]2C(=O)N[C@@H](Cc2c[nH]cn2)C(=O)N[C@H](Cc2ccccc2)C(=O)N[C@@H](Cc2c[nH]cn2)C(=O)N[C@H]1Cc1c[nH]c2ccccc12 [Chem. 91, c[c[Cys-THAZ-His-D-Phe-His-Trp- Cys]-THAZ-His-D-Phe-His-Trp]] (cyclo(C[Thz]H[dF]HWC[Thz]H[dF]HW); disulfide 1-7) | >14 |  |  | > 10
 |  |  | C[C@@H]1NC(=O)[C@H](C)NC(=O)[C@@H]2CSSC[C@H](NC(=O)[C@H](Cc3c[nH]c4ccccc34)NC(=O)[C@H](C)NC(=O)[C@H](CCCCN(CC(=O)O)CC(=O)O)NC1=O)C(=O)N1CSC[C@H]1C(=O)N[C@@H](Cc1c[nH]cn1)C(=O)N[C@H](Cc1ccccc1)C(=O)N[C@@H](Cc1c[nH]cn1)C(=O)N[C@@H](Cc1c[nH]c3ccccc13)C(=O)N2 [Chem. 104, c[c[Cys-THAZ-His-D-Phe-His-Trp- Cys]-Ala-Ala-Lys(CH2COOH)2-Ala- Trp]] (cyclo(AA[Lys(CH2CO2H)2]AWC[Thz]H[dF]HWC); disulfide 6-12) | 167 |  | 0.6 | > 100
 |  |  | C[C@@H]1NC(=O)[C@H](CCC(=O)O)NC(=O)[C@H](CCC(=O)O)NC(=O)[C@H](C)NC(=O)[C@@H]2CSSC[C@H](NC(=O)[C@H](Cc3c[nH]c4ccccc34)NC1=O)C(=O)N1CSC[C@H]1C(=O)N[C@@H](Cc1c[nH]cn1)C(=O)N[C@H](Cc1ccccc1)C(=O)N[C@@H](Cc1c[nH]cn1)C(=O)N[C@@H](Cc1c[nH]c3ccccc13)C(=O)N2 [Chem. 105, c[c[Cys-THAZ-His-D-Phe-His-Trp- Cys]-Ala-Glu-Glu-Ala-Trp]] (cyclo(AEEAWC[Thz]H[dF]HWC); disulfide 6-12) | >15 |  |  | > 100
 |  |  | C[C@@H]1NC(=O)[C@H](CC(=O)O)NC(=O)[C@H](CC(=O)O)NC(=O)[C@H](C)NC(=O)[C@@H]2CSSC[C@H](NC(=O)[C@H](Cc3c[nH]c4ccccc34)NC1=O)C(=O)N1CSC[C@H]1C(=O)N[C@@H](Cc1c[nH]cn1)C(=O)N[C@H](Cc1ccccc1)C(=O)N[C@@H](Cc1c[nH]cn1)C(=O)N[C@@H](Cc1c[nH]c3ccccc13)C(=O)N2 [Chem. 106, c[c[Cys-THAZ-His-D-Phe-His-Trp- Cys]-Ala-Asp-Asp-Ala-Trp]] (cyclo(ADDAWC[Thz]H[dF]HWC); disulfide 6-12) | >10 |  | 10.6 | > 100
 |  |  | C[C@@H]1NC(=O)[C@H](CCC(=O)O)NC(=O)[C@H](CC(=O)O)NC(=O)[C@H](C)NC(=O)[C@@H]2CSSC[C@H](NC(=O)[C@H](Cc3c[nH]c4ccccc34)NC1=O)C(=O)N1CSC[C@H]1C(=O)N[C@@H](Cc1c[nH]cn1)C(=O)N[C@H](Cc1ccccc1)C(=O)N[C@@H](Cc1c[nH]cn1)C(=O)N[C@@H](Cc1c[nH]c3ccccc13)C(=O)N2 [Chem. 107, c[c[Cys-THAZ-His-D-Phe-His-Trp- Cys]-Ala-Asp-Glu-Ala-Trp]] (cyclo(ADEAWC[Thz]H[dF]HWC); disulfide 6-12) | >10 |  | 10.6 | > 100
 |  |  | C[C@@H]1NC(=O)[C@H](CC(=O)O)NC(=O)[C@H](CCC(=O)O)NC(=O)[C@H](C)NC(=O)[C@@H]2CSSC[C@H](NC(=O)[C@H](Cc3c[nH]c4ccccc34)NC1=O)C(=O)N1CSC[C@H]1C(=O)N[C@@H](Cc1c[nH]cn1)C(=O)N[C@H](Cc1ccccc1)C(=O)N[C@@H](Cc1c[nH]cn1)C(=O)N[C@@H](Cc1c[nH]c3ccccc13)C(=O)N2 [Chem. 108, c[c[Cys-THAZ-His-D-Phe-His-Trp- Cys]-Ala-Glu-Asp-Ala-Trp]] (cyclo(AEDAWC[Thz]H[dF]HWC); disulfide 6-12) | >40 |  |  | > 100
